Test results published in patent US20100063139A1, “USE IN A COSMETIC COMPOSITION OF LIPOCHROMAN-6 TO ENHANCE THE RADIANCE OF THE COMPLEXION OF THE SKIN, ESPECIALLY THE SKIN OF THE FACE” (LVMH RECHERCHE, priority 2008, published 2010).
Values joined by “and” are separate entries in the source; they are usually repeats but may differ in a detail not shown here. Equal entries are not always repeated.

Assays:
Assay type in all cases: cell-based
gene MsrA (msra) = test: Quantitative RT-PCR (RT-Q-PCR) of msra gene expression in normal human epidermal keratinocytes; details: 24 h, NHK; for % Control (msra/G3PDH): control = 100; for Mb Cycles (msra): triplicate PCR cycle numbers
Description: (§1) The effect of lipochroman-6 on the basal expression of genes coding for the proteins MsrA and MsrB is evaluated by the method of quantitative RT-PCR (real-time PCR; RT-Q-PCR).
(§2) The model selected is that of normal human epidermal keratinocytes (NHK) cultivated in vitro.
(§3) Type: normal human epidermal keratinocytes (NHK)
(§4) Test medium: SFM medium without EGF and without PE (SFM-PE-EGF)
(§5) Lipochroman-6: stock solution at 10 mg/ml in ethanol, diluted in test medium at concentrations of 0.01 mg/ml and 0.005 mg/ml.
(§6) The keratinocytes are seeded and pre-cultured for 24 hours in complete SFM culture medium (24-well plates) and then placed in SFM-PE-EGF medium.
(§7) At confluence, the cells are treated or not (control) with the test product and are cultured for 24 h at 37° C. and 5% CO2. Each treatment is carried out in triplicate. The culture supernatants are then harvested and the cell layers are rinsed with PBS solution (Invitrogen), and then 300 μl of tri-reagent (Sigma) are added. The plates are subsequently frozen at −80° C.
(§8) The expression of the genes msra and msrb is evaluated by RT-Q-PCR on the basis of the messenger RNA (mRNA) extracted from the cell layers of each treatment. For each treatment, the three samples are combined into one prior to the extraction of the RNA.
(§9) The main steps of the protocol are as follows: • Extraction of the total RNA using tri-reagent, according to the protocol of the supplier. • Removal of traces of potentially contaminating DNA by treatment with the DNA-free system (Ambion). • Implementation of the reverse transcription reaction in the presence of the primer oligo(dT) and the enzyme Superscript II (Gibco).
(§10) The PCR reactions are carried out with the aid of the following primers: […]
(§11) The PCR (polymerase chain reaction) reactions are carried out by quantitative PCR with the Light Cycler system (Roche Molecular Systems Inc.) according to the procedures recommended by the supplier. To perform correctly, this analytical system requires prior development of the conditions of analysis of the different primers. This system is formed of two main components: an optimized thermocycler, which allows extremely rapid heat transfers, and a fluorimeter, which continuously measures the fluorescence intensity incorporated in the DNA (detection at 521 nm). The reaction mixture (10 μl final) for each sample is as follows: • 2.5 μl of cDNA diluted to 1/10th • primers of the different markers used • reaction mixture (Roche) containing the enzyme taq DNA polymerase, the marker SYBR Green I (a fluorophore which is integrated into the double-stranded DNA in the course of the elongation step) and MgCl2.
(§12) The incorporation of fluorescence into the amplified DNA is measured continuously during the PCR cycles. […] The number of cycles is determined on the basis of the “exit” points of the fluorescence curves. For a given marker analysed, the later the exit of a sample (high number of cycles) the lower the initial number of copies of the mRNA. The relative expression (RE) value is expressed in arbitrary units (AU) in accordance with the following formula: (½^number of cycles)×10^6.

[1] = test system: normal human keratinocytes (NHK); test: Immunostaining (DNPH/anti-DNP) of oxidized proteins in normal human keratinocytes, confocal image analysis; details: for DNP marking/No. of cells / DNP marking/surface area measured / Surface area DNP marking: 48 h; for Proportion of oxidized proteins/cells, KHN 0002: donor KHN 0002; for Proportion of oxidized proteins/cells, KHN 9726: donor KHN 9726; for Proportion of oxidized proteins/cells, Mean: mean of two donors
Description: Normal human keratinocytes (NHK) isolated from harvesting of human skin carried out on two different donors (labelled KHN002 and KHN 9726 hereinafter) are cultured in T75 flasks in complete KSFM medium (KSFMc) (Invitrogen GIBCO) at 37° C. and 5% CO2 and are seeded at 20 000 cells per well in 8-well Lab-Tek II culture systems (Nalge Nunc International).
After 48 h of culture, the cells are treated with the treatment solutions (see below).
A 0.004% weight/volume lipochroman-6 solution is prepared (solution A).
This is done by dissolving 20 mg of lipochroman-6 powder (supplier: Lipotec) in 2 ml of ethanol (solution at 10 mg/ml). This solution is diluted (40 μl of the stock solution in 10 ml of KSFm medium) to give solution A.
The treatment solutions are prepared by diluting solution A prepared above in the KSFMc medium, to give the correct percentage of lipochroman-6.
Treatments carried out on 3 wells per cell type: • control: KSFMc • solvent control: 0.1% solution of ethanol in KSFMc medium • 0.001% lipochroman • 0.002% lipochroman
After 48 hours of treatment, the KSFMc is drawn off. The cells are rinsed with phosphate buffer (PBS) (PBS tablets, Invitrogen GIBCO), then fixed with formalin (formalin solution 10% neutral buffered, Sigma) for 10 minutes at ambient temperature. After rinsing with PBS, the culture chambers are filled with 0.1% triton solution (Triton X-100, Sigma) for 10 minutes, then rinsed with PBS.
The subsequently disassembled culture chambers and the slides are immersed in a solution of 2,4-dinitrophenylhydrazine (300 mg of DNPH (Fluka)) in an ethanol/sulphuric acid (98.5 ml/1.5 ml) mixture for 30 minutes.
The dinitrophenyl (DNP) groups fixed to the oxidized proteins are recognized by a primary anti-DNP antibody.
For this purpose, in a first step, the slides are covered with a solution of primary antibody (monoclonal mouse anti-DNP antibody, Sigma), diluted to 1/500th in a 1% BSA/PBS solution, and are incubated for 60 minutes in an oven at ambient temperature and then rinsed with a 0.1% Tween-PBS solution (Tween20, Merck). In a second step, the cells are covered with a secondary antibody solution (Alexafluor 546 goat anti-mouse, Invitrogen) in a 1% BSA/PBS solution, and are incubated away from the light for 60 minutes. The slides are subsequently rinsed with PBS-Tween and then with PBS.
The photographs are made by confocal microscopy (Axioplan microscope from Zeiss and krypton-argon laser from BioRad) with the aid of the LaserSharp 2000 software (BioRad). For each condition, three photographs are made with the ×40 lens, according to the same acquisition parameters (gain, iris).
In practice, an excitation fluorescence at 546 nm is applied by the confocal laser to the cells. The fluorochrome Alexafluor 546, which represents the oxidized proteins, emits fluorescence at 573 nm, which is recovered by a specific filter and can be observed. The measured fluorescence is therefore directly proportional to the amount of oxidized proteins.
The photographs are analysed with the aid of the Leica QWin image analysis software. A program allows the DNPH staining to be quantified in order to evaluate the level of oxidized proteins and the number of cells.
The program detects the fluorescent staining of the oxidized proteins. A detection zone which is as representative as possible (number, size, cell density, intensity of marking) is delimited. The fluorescence of the oxidized proteins is measured in the delimited zone, and the cells in the same zone are numbered by counting of the cell nuclei (see FIGS. 2a, 2b, 2c, 2d and 2e).
The effect of lipochroman-6 on the oxidation of proteins is measured on the two types of normal human keratinocytes (NHK). This is done by estimating the surface area of staining of the oxidized proteins, the surface area of the measurement zone and the number of cells in the measurement surface area, using an image processing system.

gene MsrB (msrb) = test: Quantitative RT-PCR (RT-Q-PCR) of msrb gene expression in normal human epidermal keratinocytes; details: 24 h, NHK; for % Control (msrb/G3PDH): control = 100; for Mb Cycles (msrb): triplicate PCR cycle numbers
Description: as §1, §2, §3, §4, §5, §6, §7, §8, §9, §10, §11, §12

[2] = test system: methionine sulphoxide reductase (Msr); test: Msr activity in protein extracts of treated human keratinocytes (N-acetyl-(3H)-methionine-R,S sulphoxide substrate); details: dose of 0.05%; human keratinocytes in culture, 24 h treatment
Description: The keratinocytes are obtained from grafts of skin originating from abdomens of healthy donors aged 47 years.
Lipochroman-6 powder (supplier: Lipotec) is first diluted in 20 μl of absolute ethanol. Then a stock solution at 10 mg/ml in the K-SFM-S medium is prepared.
An intermediate solution at 1 mg/ml (dilution 20 μl in 200 μl of K-SFM-S medium) is prepared from the lipochroman-6 stock solution.
The dilutions are carried out in the K-SFM-S medium on the basis of the intermediate solution at 1 mg/ml.
The medium is drawn off from the cell flasks (passage P3) and replaced with the medium containing the different dilutions of actives. After 24 hours of treatment, the cells are washed with PBS buffer and then treated with trypsin. The cells are finally counted with a NucleoCounter from Chemometec (Bioblock). […]
The Msr activity is measured on the basis of the protein extracts by using the substrate N-acetyl-(^3H)-methionine-(R, S) sulphoxide in a reaction mixture of 30 μl containing Tris-HCl pH 7.5, 25 mM, MgCl2 10 mM, DTT 15 mM, at 37° C. […]
The required quantity of proteins is withdrawn and made up with water to a reaction volume of 20.8 μl in a 2 ml Eppendorf tube stored in ice. […]
Following centrifugation at 15 000 g for 5 minutes at ambient temperature, 1 ml of the upper, organic phase is withdrawn and is counted in a scintillation vial and admixed with 2 ml of Sigma Fluor scintillant. […]

COc1cc2c(cc1O)CCC(C)(C)O2 [Lipochroman-6]
Mb/G3PDH (msra/G3PDH) (gene MsrA (msra); 0.005 mg/ml): 4.14 × 10^−3 | RE*Mb (AU) (msra relative expression) (gene MsrA (msra); 0.005 mg/ml): 8.251 × 10^−3 AU | % Control (msra/G3PDH) (gene MsrA (msra); 0.005 mg/ml): 116% | Mb Cycles (msra) (gene MsrA (msra); 0.005 mg/ml): 26.84 and 26.91 and 26.81 | Mb/G3PDH (msra/G3PDH) (gene MsrA (msra); 0.01 mg/ml): 4.42 × 10^−3 | RE*Mb (AU) (msra relative expression) (gene MsrA (msra); 0.01 mg/ml): 8.66 × 10^−3 AU | % Control (msra/G3PDH) (gene MsrA (msra); 0.01 mg/ml): 124% | Mb Cycles (msra) (gene MsrA (msra); 0.01 mg/ml): 26.83 and 26.79 and 26.73 | DNP marking/No. of cells ([1]; 0.001% lipochroman): 82.1 B | DNP marking/surface area measured ([1]; 0.001% lipochroman): 28.7% D | Surface area DNP marking ([1]; 0.001% lipochroman): 3776 C | Proportion of oxidized proteins/cells, KHN 0002 ([1]; 0.001% lipochroman-6, 48 h): 76.3 | Proportion of oxidized proteins/cells, KHN 9726 ([1]; 0.001% lipochroman-6, 48 h): 88 | Proportion of oxidized proteins/cells, Mean ([1]; 0.001% lipochroman-6, 48 h): 82.1 | DNP marking/No. of cells ([1]; 0.002% lipochroman): 52.0 A | DNP marking/surface area measured ([1]; 0.002% lipochroman): 18.4% B | Surface area DNP marking ([1]; 0.002% lipochroman): 2415 B | Proportion of oxidized proteins/cells, KHN 0002 ([1]; 0.002% lipochroman-6, 48 h): 60.9 | Proportion of oxidized proteins/cells, KHN 9726 ([1]; 0.002% lipochroman-6, 48 h): 43 | Proportion of oxidized proteins/cells, Mean ([1]; 0.002% lipochroman-6, 48 h): 52 | Mb/G3PDH (msrb/G3PDH) (gene MsrB (msrb); 0.005 mg/ml): 1.76 × 10^−2 | RE*Mb (AU) (msrb relative expression) (gene MsrB (msrb); 0.005 mg/ml): 3.516 × 10^−2 AU | % Control (msrb/G3PDH) (gene MsrB (msrb); 0.005 mg/ml): 127% | Mb Cycles (msrb) (gene MsrB (msrb); 0.005 mg/ml): 24.68 and 24.86 and 24.75 | Mb/G3PDH (msrb/G3PDH) (gene MsrB (msrb); 0.01 mg/ml): 2.05 × 10^−2 | RE*Mb (AU) (msrb relative expression) (gene MsrB (msrb); 0.01 mg/ml): 4.018 × 10^−2 AU | % Control (msrb/G3PDH) (gene MsrB (msrb); 0.01 mg/ml): 148% | Mb Cycles (msrb) (gene MsrB (msrb); 0.01 mg/ml): 24.62 and 24.60 and 24.49 | Increase of Msr activity [2]: 44%
